Drawing on PubChem BioAssay (NCI), this text covers TGI and GI50 for 47 molecules.

Several values for one entry are separate records, joined by “and”; a condition that tells them apart may be missing. Equal values may be shown once.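 These data come from cells grown in 96-well plates and exposed to compound for 48 hours at five concentrations. GI50 is the concentration that inhibits growth by half. Definition used: TGI = concentration required for complete inhibition of growth.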 Where only a bound is given, the exact number is not on record here.

Common to all, as to assay: NCI tumour cell line growth inhibition, 48 h
Assay [1] relates to T-47D breast.
For assay [2], the system named is MCF7 breast.
In assay [3] the test system is MDA-N.
For assay [4], the system named is RXF-631 renal.
In assay [5] the test system is HOP-18 NSCLC.
In assay [6] the test system is DMS 273 small cell lung.
Assay [7] concerns SNB-78 CNS.
Assay [8] deals with MDA-MB-231 breast.
The subject of assay [9] is BT-549 breast.
Assay [10] concerns SN12K1 renal.
Assay [11] concerns P388/ADR leukemia.

As to `CN(C)CCNC(=O)Cn1ccc(=O)c2ccc([N+](=O)[O-])cc21`, the TGI in assay [1], in assay [2] and in [3] was over 100 µM each time.

For the molecule `COc1cc(C(=O)C/C(CCC(=O)Nc2ccc(Cl)cc2Cl)=N/NC(=O)C(N)=O)ccc1O`, the TGI in assay [4], in [5], in [6] and in assay [7] was over 100 µM throughout.

Take `C/C(=N\NC(=O)c1ccccc1O)c1cccc(/C(C)=N/NC(=O)c2ccccc2O)n1`: the GI50 in [1] was 2.3 µM; in assay [8], 10.6 µM; in [5], 1.84 µM; in assay [2], 7.8 µM; in [6] it was 20.4 µM; in assay [9], 0.441 µM. The GI50 in assay [7] was 46.2 µM. The TGI was over 100 µM in assay [1]; over 100 µM in assay [8]; 39.4 µM in assay [5]; over 100 µM in assay [2]; over 100 µM in [3]; over 100 µM in assay [6]. Moreover, the TGI in assay [9] and in assay [7] was over 100 µM throughout.

For the molecule `O=C(O)C[O][Sb][O]CC(=O)O`, the GI50 in assay [1], in assay [8], in [3] and in [9] was over 100 µM throughout. Also, the TGI in [1], in assay [8], in assay [3] and in assay [9] was over 100 µM in each case.

Regarding `CCC[CH2][Sn]([CH2]CCC)([O]C(=O)c1cc(OC)c(OC)cc1OC)[O]C(=O)c1cc(OC)c(OC)cc1OC`, the GI50 in [4] is 1.37 µM; in assay [6] it was 1.55 µM; in [7], 0.68 µM. Further, the values for the TGI in [4], in [6] and in assay [7] were 2.93 µM, 3.37 µM and 2.41 µM, respectively.

Turning to `CN(C)CCCNc1ccnc2cc([N+](=O)[O-])ccc12`, the TGI in assay [1] is 35.8 µM; in assay [8], 28.6 µM; in assay [2], 16.7 µM; in assay [3], 25.7 µM; in assay [9], 33.4 µM.

In the case of `Nc1ncnc2c(C3OC(CO)C(O)C3O)[nH]nc12` (stereo not drawn), the GI50 was 0.0308 µM in assay [1], 0.0218 µM in assay [8] and 0.113 µM in [9]. The TGI in [1] came to 1.57 µM; in [10], 1.88 µM; in assay [8], 0.0705 µM; in assay [5], 0.144 µM; in assay [11], 123 µM; in assay [6], 1.58 µM. Besides, the TGI in assay [9] stood at 3.38 µM; in assay [7], 40.4 µM.

Regarding `S=C=NCc1ccccc1`, the TGI amounted to 33.3 µM in [1]; 5.14 µM in [8]; 28.6 µM in [2]; 12.4 µM in assay [3]; 5.12 µM in assay [9].

On to `COc1c(NC(=O)CC(C)=O)[c]([Hg][O]C(C)=O)c(OC)c(Cl)[c]1[Hg][O]C(C)=O`, for which the GI50 in [4] was 3.02 µM; in assay [5], 13.6 µM; in assay [6] it was 16.4 µM; in assay [7] it was 15.5 µM. Also, the TGI in assay [4] was 13.7 µM; in [5] it was 26.5 µM; in assay [6] it was 31.9 µM; in assay [7], 34.2 µM.

Consider `Cc1ccc(S(=O)(=O)SCc2ccccc2CSS(=O)(=O)c2ccc(C)cc2)cc1`, for which the TGI in [4] is over 100 µM; in assay [5], over 100 µM; in [6], 44.2 µM; in [7], over 100 µM.

In the case of `O=C(Nc1nc2ccccc2n1Cc1ccc(Cl)cc1)NC12CC3CC(CC(C3)C1)C2`, the values for the TGI in [5] and in assay [6] were 85.4 µM and 34.7 µM, respectively.

For the molecule `COc1cc(/C=C/c2ccc(OC(C)=O)cc2)cc(OC)c1OC`, the TGI in assay [4], in assay [5], in assay [6] and in assay [7] was over 100 µM each time.

Turning to `CC(=O)C1C(=O)C(=O)N(c2ccccc2N2C(=O)C(=O)C(C(C)=O)C2=O)C1=O` (stereo not drawn), the TGI in assay [4], in [5] and in assay [7] was over 100 µM throughout.

As to `CCOC(=O)[C@H]1Nc2ccc(Cl)cc2[C@H]2OCC[C@@H]12`, the TGI in assay [4], in assay [5], in assay [6] and in assay [7] was over 100 µM in each case.

With `Cc1ccc(NC(=O)CC/C(CC(=O)c2ccc(F)cc2)=N\NC(=O)C(=O)NN)cc1C`, the TGI in [4], in [5], in assay [6] and in [7] was over 100 µM each time.

For `CCCCCCCCCC1C(C)c2c([nH]c3ccccc23)C2C(=O)N(c3ccccc3)C(=O)C21` (stereo not drawn), the TGI is 11.7 µM in [4], 25 µM in assay [6] and over 100 µM in assay [7].

`Cc1ccccc1NC(=O)C1C(=O)N(c2ccccc2C)C(=O)/C1=N\N` (stereo not drawn): the TGI in assay [4], in [5] and in assay [7] was over 100 µM each time.

For `O=C(O)CCCCCO`, the TGI in [5], in assay [6] and in [7] was over 100 µM each time.

For the molecule `COc1cc2c(c(OC)c1OC)-c1ccc(SC)c(=O)cc1[C@@H](NCc1cccc(C#N)c1)CC2`, the TGI in assay [4] is 21.6 µM; in [6], under 0.0075 µM. Also, in assay [6], the GI50 is under 0.0075 µM.

As to `CC(C)(C)OC(=O)NC1CCC[C@H]1O` (stereo partly drawn), the TGI in [4], in assay [6] and in assay [7] was over 100 µM in each case.

For `Cc1nc(-c2nc(C)c(C(=O)NN(C)C)s2)sc1C(=O)NN(C)C`, the TGI in assay [5] is over 100 µM; in assay [6], 38.9 µM; in assay [7] it was over 100 µM.

For `CCc1ccc(Nc2cc(=O)[nH]c(=S)n2C)cc1`, the TGI in assay [5], in [6] and in assay [7] was over 100 µM throughout.

For `Cc1cccc(NC(=O)CCl)c1`, the TGI in assay [1], in assay [8], in assay [2], in assay [3] and in [9] was over 10 µM in each case.

On to `CC(=O)OC1C/C(C)=C/CCC(C)/C=C/C2(C)CCC(C(C)(C)O)C12` (stereo not drawn), for which the TGI in assay [5], in assay [6] and in assay [7] was over 100 µM throughout.

For the molecule `CC1=CC2=C(C(N)=O)C(=O)OC2(C)C(c2ccccc2)C1` (stereo not drawn), the TGI in assay [8], in assay [2], in assay [3] and in assay [9] was over 100 µM each time.

Regarding `CC(=O)Nc1ccccc1-c1cnc2ccccc2n1`, the TGI in assay [5] and in [7] was over 100 µM in each case.

For the molecule `COC(=O)c1c2c(c(-c3ccccc3)c3c1-c1nc(Cl)ccc1CC3)CCc1ccc(Cl)nc1-2`, the TGI in assay [4], in [5] and in assay [7] was over 100 µM in each case.

As to `CC(=O)OCC1OC(n2c(=O)n(-c3ccccc3)c(=O)c3cc(Br)cc(Br)c32)C(OC(C)=O)C(OC(C)=O)C1OC(C)=O` (stereo not drawn), the TGI in assay [4], in assay [5], in [6] and in assay [7] was over 100 µM in each case.

With `Nc1ccc2c(c1)CC1c3ccccc3C(C2)c2ccccc21`, the TGI in assay [5], in assay [6] and in assay [7] was over 100 µM each time.

Regarding `CC1(O)CC2(O)C=CC3=C(C(=O)c4cccc(O)c4C3=O)C2(O)C(=O)C1O` (stereo not drawn), the TGI came to 3.51 µM in [1]; 11.8 µM in [8]; 3.09 µM in assay [5]; 2.6 µM in [2]; 3.24 µM in assay [3]; 16.1 µM in assay [6]. The molecule further returned a TGI in assay [9] of 2.58 µM.

On to `CCOC(=O)C(=Cc1cc(OC)ccc1OC)C(=O)OCC`, for which the TGI in [4] was found to be 32.5 µM; in assay [5], 23.6 µM; in assay [6], 14.2 µM.

Regarding `Nc1nc(N)c(N=O)c(Nc2ccc(I)cc2)n1`, the results for the TGI in [6] and in [7] were 49.7 µM and 66.6 µM, respectively.

As to `CC[N+]1(C)CCC(O)(c2ccccc2)C(C(=O)c2ccccc2)C1` (stereo not drawn), the TGI in assay [1] amounted to 39.7 µM; in [8], 42.7 µM; in [5], 31 µM; in assay [2], 9.6 µM; in [6] it was 47.1 µM; in [9], 27.7 µM.

Turning to `COc1ccc(/C=C2\SC(c3ccc(OC)cc3)N(NC(=O)Cc3ccccc3)C2=O)cc1` (stereo not drawn), the TGI in assay [5] and in assay [6] was over 100 µM throughout.

Take `Cc1ccc2c(c1)SC(c1cc3c(cc1Br)OCO3)S2` (stereo not drawn): the TGI in [5], in [6] and in assay [7] was over 31.6 µM in each case.

In the case of `N#CCN1CCOCCOCCN(CC#N)CCOCCOCC1`, the TGI in assay [4], in assay [5] and in assay [7] was over 100 µM in each case.

As to `O=C(O)CCCSc1nc2ccccc2s1`, the TGI in assay [1], in assay [8], in assay [2], in [3] and in [9] was over 100 µM throughout.

Consider `COc1cc([C@@H]2c3cc4c(cc3[C@@H](NCc3ccccc3)C3COC(=O)[C@@H]32)OCO4)cc(OC)c1O` (stereo partly drawn), for which the TGI in [4] was 30.2 µM; in assay [6], 36.7 µM; in assay [7], over 100 µM.

Take `Nc1ncnc2c(C3OC(CO)C(O)C3O)scc12` (stereo not drawn): the TGI was 4.54 µM in assay [5]; 0.151 µM and 0.11 µM in assay [6].

For `CCOC(=O)C(Cc1ccccc1)NC(=O)OC(C)(C)C` (stereo not drawn), the TGI in [4], in assay [6] and in [7] was over 100 µM throughout.

Consider `CCOC(=O)N1N=NC2C3OC(C[C@@]3(C#N)OC(C)=O)[C@H]21` (stereo partly drawn), for which the TGI in assay [4], in [5], in assay [6] and in assay [7] was over 100 µM in each case.

Consider `Cc1ccc(C2(O)CC(c3ccc([N+](=O)[O-])o3)=NN2C(=O)COc2ccccc2Cl)cc1` (stereo not drawn), for which the TGI is over 55.1 µM in [4], over 100 µM in assay [5], over 100 µM in assay [6] and over 100 µM in assay [7].

`C[C@]12CCC3c4ccc(O)cc4CCC3C1Cc1ccc(O)cc12` (stereo partly drawn): the GI50 was 13.1 µM in assay [1], 7.44 µM in [8], 4.83 µM in assay [2] and 6.57 µM in assay [9]. Moreover, the TGI in assay [1] worked out at 30.9 µM; in [8] it was 22.2 µM; in [2] it was 17.8 µM; in [9] it was 23.4 µM.

Take `Cc1c(C(=O)/C=C/c2ccccc2Cl)[n+](=O)c2ccccc2n1[O-]`: the TGI in assay [4] came out at 36.5 µM; in [5], 28.2 µM; in assay [6] it was 27.9 µM; in [7], 44.3 µM.

For `NCCCC1NC(=O)/C(=C(O)/C=C/C2CCC[C@@H]2CC2SCCS2)C1=O` (stereo partly drawn), the TGI in assay [5] and in assay [6] was over 100 µM each time.

For the molecule `C#C[C@@]1(O)[C@@H](CO)O[C@@H](n2ccc3c(N)ncnc32)[C@@H]1O`, the GI50 in assay [1] was 0.445 µM; in assay [8] it was 1.53 µM; in assay [2] it was 0.239 µM; in assay [9], 1.63 µM. The TGI in assay [1] was found to be 2.14 µM; in assay [8] it was 5.89 µM; in assay [2], 5.67 µM; in assay [9], 3.64 µM.

Consider `O=C1[C@@H]2C3SC(c4ccccc43)[C@@H]2C(=O)N1c1ccccc1`, for which the TGI in assay [5], in assay [6] and in [7] was over 100 µM in each case.
